Key:
[1] = Metabolic stability in monkey plasma assessed as unchanged drug level at 185 MBq/0.1 mL, iv after 60 mins; assay type: ADME, organism-based, Macaca mulatta; details: rhesus monkey, read-out: Stability
[2] = Metabolic stability in monkey plasma assessed as unchanged drug level at 185 MBq/0.1 mL, iv after 15 mins; assay type: ADME, organism-based, Macaca mulatta; details: rhesus monkey, read-out: Stability
[3] = Metabolic stability in monkey plasma assessed as unchanged drug level at 185 MBq/0.1 mL, iv after 5 mins; assay type: ADME, organism-based, Macaca mulatta; details: rhesus monkey, read-out: Stability
[4] = Metabolic stability in Sprague-Dawley plasma assessed as unchanged drug level at 37 MBq/0.1 mL, iv after 30 mins; assay type: ADME, organism-based; details: rat, read-out: Stability
[5] = Metabolic stability in Sprague-Dawley plasma assessed as unchanged drug level at 37 MBq/0.1 mL, iv after 15 mins; assay type: ADME, organism-based; details: rat, read-out: Stability
[6] = Metabolic stability in Sprague-Dawley brain assessed as unchanged drug level at 37 MBq/0.1 mL, iv after 60 mins; assay type: ADME, organism-based; details: rat, read-out: Stability
[7] = Metabolic stability in Sprague-Dawley brain assessed as unchanged drug level at 37 MBq/0.1 mL, iv after 15 mins; assay type: ADME, organism-based; details: rat, read-out: Stability
[8] = Metabolic stability in Sprague-Dawley brain assessed as unchanged drug level at 37 MBq/0.1 mL, iv after 5 mins; assay type: ADME, organism-based; details: rat, read-out: Stability
[9] = Drug uptake in monkey pons assessed as distribution volume ratio at 185 to 220 MBq, iv after 10 to 90 mins by PET analysis; assay type: ADME, organism-based, Macaca mulatta; details: rhesus monkey, in vivo
Hippocampus = test: Drug uptake in monkey hippocampus assessed as distribution volume ratio at 185 to 220 MBq, iv after 10 to 90 mins by PET analysis; assay type: ADME, organism-based, Macaca mulatta; details: rhesus monkey, in vivo
[10] = Drug uptake in monkey cerebellum assessed as distribution volume ratio at 185 to 220 MBq, iv after 10 to 90 mins by PET analysis; assay type: ADME, organism-based, Macaca mulatta; details: rhesus monkey, in vivo
[11] = Drug uptake in monkey caudate at 185 to 220 MBq, iv after 10 mins by PET analysis; assay type: ADME, organism-based, Macaca mulatta, Caudate nucleus; details: rhesus monkey, in vivo
[12] = Drug uptake in monkey cingulate cortex at 185 to 220 MBq, iv after 20 mins by PET analysis; assay type: ADME, organism-based, Macaca mulatta; details: rhesus monkey, in vivo
[13] = Drug uptake in monkey cerebellum at 185 to 220 MBq, iv after 20 mins by PET analysis; assay type: ADME, organism-based, Macaca mulatta; details: rhesus monkey, in vivo
Brain [14] = test: Drug uptake in monkey brain at 185 to 220 MBq, iv after 10 to 60 mins by PET analysis in presence of unlabeled N-[4-[6-(Isopropylamino)pyrimidin-4-yl]-1,3-thiazol-2-yl]- N,4-dimethylbenzamide; assay type: ADME, organism-based, Macaca mulatta; details: rhesus monkey, in vivo
[15] = Drug uptake in monkey cingulate cortex at 185 to 220 MBq, iv after 10 to 60 mins by PET analysis; assay type: ADME, organism-based, Macaca mulatta; details: rhesus monkey, in vivo
Mus musculus [16] = organism: Mus musculus; test: Biodistribution in ddY mouse testis at 4.8 MBq/0.1 mL after 90 mins by gamma counting; assay type: ADME, organism-based; details: in vivo, 1.5 h
Muscle tissue [17] = test: Biodistribution in ddY mouse muscle at 4.8 MBq/0.1 mL after 90 mins by gamma counting; assay type: ADME, organism-based; details: in vivo, 1.5 h
Mus musculus [18] = organism: Mus musculus; test: Biodistribution in ddY mouse large intestine at 4.8 MBq/0.1 mL after 90 mins by gamma counting; assay type: ADME, organism-based; details: in vivo, 1.5 h
Lung [19] = test: Biodistribution in ddY mouse lung at 4.8 MBq/0.1 mL after 90 mins by gamma counting; assay type: ADME, organism-based; details: in vivo, 1.5 h
Heart [20] = test: Biodistribution in ddY mouse heart at 4.8 MBq/0.1 mL after 90 mins by gamma counting; assay type: ADME, organism-based; details: in vivo, 1.5 h
Mus musculus [21] = organism: Mus musculus; test: Biodistribution in ddY mouse large intestine at 4.8 MBq/0.1 mL after 60 mins by gamma counting; assay type: ADME, organism-based; details: in vivo, 1 h
Mus musculus [22] = organism: Mus musculus; test: Biodistribution in ddY mouse small intestine at 4.8 MBq/0.1 mL after 60 mins by gamma counting; assay type: ADME, organism-based; details: in vivo, 1 h
Spleen [23] = test: Biodistribution in ddY mouse spleen at 4.8 MBq/0.1 mL after 60 mins by gamma counting; assay type: ADME, organism-based; details: in vivo, 1 h
Liver [24] = test: Biodistribution in ddY mouse liver at 4.8 MBq/0.1 mL after 60 mins by gamma counting; assay type: ADME, organism-based; details: in vivo, 1 h
Brain [25] = test: Biodistribution in ddY mouse brain at 4.8 MBq/0.1 mL after 30 mins by gamma counting; assay type: ADME, organism-based; details: in vivo, 0.5 h
Mus musculus [26] = organism: Mus musculus; test: Biodistribution in ddY mouse testis at 4.8 MBq/0.1 mL after 30 mins by gamma counting; assay type: ADME, organism-based; details: in vivo, 0.5 h
Muscle tissue [27] = test: Biodistribution in ddY mouse muscle at 4.8 MBq/0.1 mL after 30 mins by gamma counting; assay type: ADME, organism-based; details: in vivo, 0.5 h
Spleen [28] = test: Biodistribution in ddY mouse spleen at 4.8 MBq/0.1 mL after 30 mins by gamma counting; assay type: ADME, organism-based; details: in vivo, 0.5 h
Heart [29] = test: Biodistribution in ddY mouse heart at 4.8 MBq/0.1 mL after 30 mins by gamma counting; assay type: ADME, organism-based; details: in vivo, 0.5 h
Mus musculus [30] = organism: Mus musculus; test: Biodistribution in ddY mouse large intestine at 4.8 MBq/0.1 mL after 15 mins by gamma counting; assay type: ADME, organism-based; details: in vivo, 0.25 h
Pancreas [31] = test: Biodistribution in ddY mouse pancreas at 4.8 MBq/0.1 mL after 15 mins by gamma countingeas; assay type: ADME, organism-based; details: in vivo, 0.25 h
Spleen [32] = test: Biodistribution in ddY mouse spleen at 4.8 MBq/0.1 mL after 15 mins by gamma counting; assay type: ADME, organism-based; details: in vivo, 0.25 h
Liver [33] = test: Biodistribution in ddY mouse liver at 4.8 MBq/0.1 mL after 15 mins by gamma counting; assay type: ADME, organism-based; details: in vivo, 0.25 h
Heart [34] = test: Biodistribution in ddY mouse heart at 4.8 MBq/0.1 mL after 15 mins by gamma counting; assay type: ADME, organism-based; details: in vivo, 0.25 h
Blood [35] = test: Biodistribution in ddY mouse blood at 4.8 MBq/0.1 mL after 15 mins by gamma counting; assay type: ADME, organism-based; details: in vivo, 0.25 h
Mus musculus [36] = organism: Mus musculus; test: Biodistribution in ddY mouse large intestine at 4.8 MBq/0.1 mL after 5 mins by gamma counting; assay type: ADME, organism-based; details: in vivo
Kidney [37] = test: Biodistribution in ddY mouse kidney at 4.8 MBq/0.1 mL after 5 mins by gamma counting; assay type: ADME, organism-based; details: in vivo
Pancreas [38] = test: Biodistribution in ddY mouse pancreas at 4.8 MBq/0.1 mL after 5 mins by gamma countingeas; assay type: ADME, organism-based; details: in vivo
Spleen [39] = test: Biodistribution in ddY mouse spleen at 4.8 MBq/0.1 mL after 5 mins by gamma counting; assay type: ADME, organism-based; details: in vivo
Liver [40] = test: Biodistribution in ddY mouse liver at 4.8 MBq/0.1 mL after 5 mins by gamma counting; assay type: ADME, organism-based; details: in vivo
Lung [41] = test: Biodistribution in ddY mouse lung at 4.8 MBq/0.1 mL after 5 mins by gamma counting; assay type: ADME, organism-based; details: in vivo
Muscle tissue [42] = test: Biodistribution in ddY mouse muscle at 4.8 MBq/0.1 mL after 1 min by gamma counting; assay type: ADME, organism-based; details: in vivo
Mus musculus [43] = organism: Mus musculus; test: Biodistribution in ddY mouse large intestine at 4.8 MBq/0.1 mL after 1 min by gamma counting; assay type: ADME, organism-based; details: in vivo
Kidney [44] = test: Biodistribution in ddY mouse kidney at 4.8 MBq/0.1 mL after 1 min by gamma counting; assay type: ADME, organism-based; details: in vivo
Pancreas [45] = test: Biodistribution in ddY mouse pancreas at 4.8 MBq/0.1 mL after 1 min by gamma countingeas; assay type: ADME, organism-based; details: in vivo
Spleen [46] = test: Biodistribution in ddY mouse spleen at 4.8 MBq/0.1 mL after 1 min by gamma counting; assay type: ADME, organism-based; details: in vivo
Liver [47] = test: Biodistribution in ddY mouse liver at 4.8 MBq/0.1 mL after 1 min by gamma counting; assay type: ADME, organism-based; details: in vivo
Blood [48] = test: Biodistribution in ddY mouse blood at 4.8 MBq/0.1 mL after 1 min by gamma counting; assay type: ADME, organism-based; details: in vivo

remaining at 1 h [1]: 28.4% | remaining at 0.25 h [2]: 43.1% | remaining at 5 min [3]: 70.2% | remaining at 0.5 h [4]: 39% | remaining at 0.25 h [5]: 47.6% | remaining at 1 h [6]: 98.2% | remaining at 0.25 h [7]: 95.2% | remaining at 5 min [8]: 94% | Ratio [9]: 1 | Ratio (Hippocampus): 1.8 | Ratio [10]: 4.3 | Drug uptake [11]: Active | SUV [12]: 0.9 | SUV [13]: 1.2 | Drug uptake (Brain [14]): Not Active | Drug uptake [15]: Active | Drug uptake (Mus musculus [16]): 0.14 % ID/g | Drug uptake (Muscle tissue [17]): 0.17 % ID/g | Drug uptake (Mus musculus [18]): 7.02 % ID/g | Drug uptake (Lung [19]): 0.12 % ID/g | Drug uptake (Heart [20]): 0.01 % ID/g | Drug uptake (Mus musculus [21]): 1.98 % ID/g | Drug uptake (Mus musculus [22]): 17.46 % ID/g | Drug uptake (Spleen [23]): 0.02 % ID/g | Drug uptake (Liver [24]): 0.51 % ID/g | Drug uptake (Brain [25]): 1.59 % ID/g | Drug uptake (Mus musculus [26]): 0.22 % ID/g | Drug uptake (Muscle tissue [27]): 0.13 % ID/g | Drug uptake (Spleen [28]): 0.07 % ID/g | Drug uptake (Heart [29]): 0.09 % ID/g | Drug uptake (Mus musculus [30]): 1.2 % ID/g | Drug uptake (Pancreas [31]): 0.3 % ID/g | Drug uptake (Spleen [32]): 0.29 % ID/g | Drug uptake (Liver [33]): 4.89 % ID/g | Drug uptake (Heart [34]): 0.27 % ID/g | Drug uptake (Blood [35]): 0.37 % ID/g | Drug uptake (Mus musculus [36]): 1.03 % ID/g | Drug uptake (Kidney [37]): 4.41 % ID/g | Drug uptake (Pancreas [38]): 1.23 % ID/g | Drug uptake (Spleen [39]): 0.93 % ID/g | Drug uptake (Liver [40]): 11.38 % ID/g | Drug uptake (Lung [41]): 2.56 % ID/g | Drug uptake (Muscle tissue [42]): 2.59 % ID/g | Drug uptake (Mus musculus [43]): 1.28 % ID/g | Drug uptake (Kidney [44]): 11.12 % ID/g | Drug uptake (Pancreas [45]): 4.48 % ID/g | Drug uptake (Spleen [46]): 1.74 % ID/g | Drug uptake (Liver [47]): 11.47 % ID/g | Drug uptake (Blood [48]): 3.09 % ID/g
SMILES: CC(C)Nc1cc(-c2csc(N(C)C(=O)c3ccc([14CH3])cc3)n2)ncn1
